Source: PMC8243516, “Inhibition of lysosomal phospholipase A2 predicts drug-induced phospholipidosis” (Journal of Lipid Research, 2021)
Read-outs that look alike come from different tables or passages of the source.

What was measured:
[1] = target: T1, LPLA2 (Mus musculus, UniProt Q8VEB4); test: LPLA2 thermal stability measurement (SYPRO Orange Tm); type: binding
T1 construct: purchased Proteos Inc. (Kalamazoo, MI)
T1 sequence (Q8VEB4 34-412): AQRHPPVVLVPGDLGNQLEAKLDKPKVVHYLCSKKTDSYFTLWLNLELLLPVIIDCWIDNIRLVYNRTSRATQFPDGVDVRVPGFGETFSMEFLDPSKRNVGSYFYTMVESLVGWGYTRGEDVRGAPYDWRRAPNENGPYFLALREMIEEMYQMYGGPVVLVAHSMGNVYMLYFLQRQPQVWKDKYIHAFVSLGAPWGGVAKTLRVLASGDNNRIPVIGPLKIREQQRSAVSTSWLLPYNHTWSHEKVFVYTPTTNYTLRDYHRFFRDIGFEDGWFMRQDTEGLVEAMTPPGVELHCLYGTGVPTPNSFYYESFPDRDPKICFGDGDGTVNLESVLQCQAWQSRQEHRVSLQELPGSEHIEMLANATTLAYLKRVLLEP

[2] = target: T2, recombinant mouse LPLA2 (PLA2G15) (Mus musculus, UniProt Q8VEB4); test: Transacylase activity of LPLA2 (1-O-acyl-N-acetylsphingosine synthase, cell-free liposome assay); type: biochemical
T2 construct: purchased Proteos Inc. (Kalamazoo, MI)
T2 sequence (Q8VEB4 34-412): T1 sequence (Q8VEB4 34-412)

[3] = cited from earlier work
[4] = LPLA2 dependent 1-O-acyl N-acetylsphingosine synthase activity, read-out: LPLA2 IC50
[5] = ref Pubchem and chEMBL database
[6] = 1-O-acyl N-acetylsphingosine synthase activity, pH 4.5, DOPC/sulfatide liposomes, read-out: LPLA2 IC50
[7] = ref Pubchem and chEMBL databases

CC(C)COCC(CN(Cc1ccccc1)c1ccccc1)N1CCCC1 (centres unmarked) [bepridil]
(ΔTm)c-(ΔTm)d, difference in melting temperature of LPLA2 alone or in the presence of drug ([1]; N=3 ± SD): 2.10 ± 0.6 °C

C[C@]12CCC(=O)C=C1CC[C@@H]1[C@@H]2[C@@H](O)C[C@@]2(C)[C@H]1CC[C@]2(O)C(=O)CO [Hydrocortisone]
(ΔTm)c-(ΔTm)d, difference in melting temperature of LPLA2 alone or in the presence of drug ([1]; N=3 ± SD): 1.11 ± 0.1 °C
IC50 [2, 4]: 402 µM
pKa (basic) [3, 5]: -2.8

O=c1ccn([C@@H]2O[C@H](CO)[C@@H](O)[C@H]2O)c(=O)[nH]1 [uridine]
(ΔTm)c-(ΔTm)d, difference in melting temperature of LPLA2 alone or in the presence of drug ([1]; N=3 ± SD): -1.71 ± 0.1 °C

CCN(CCCCOC(=O)c1ccc(OC)c(OC)c1)C(C)Cc1ccc(OC)cc1 (centres unmarked) [Mebeverine, 4-{ethyl[1-(4-methoxyphenyl)propan-2-yl]amino}butyl 3,4-dimethoxybenzoate]
(ΔTm)c-(ΔTm)d, difference in melting temperature of LPLA2 alone or in the presence of drug ([1]; N=3 ± SD): -0.05 ± 0.5 °C
IC50 [2, 6]: 417 µM
pKa (basic) [3, 7]: 10.31

Cl.NCCc1ccc(O)c(O)c1 [3-Hydroxy-tyramine hydrochloride]
IC50 [2, 4]: 56.1 µM
pKa (basic) [3, 5]: 9.27

C(=Cc1ccccc1)CN1CCN(C(c2ccccc2)c2ccccc2)CC1 [Cinnarizine, 1-(diphenylmethyl)-4-(3-phenylprop-2-en-1-yl) piperazine]
pKa (basic) [3, 7]: 8.44

CN1CCN(CCCN2c3ccccc3Sc3ccc(Cl)cc32)CC1 [Prochlorperazine]
pKa (basic) [3, 5]: 8.39

OCCN1CCN(CCCN2c3ccccc3Sc3ccc(Cl)cc32)CC1 [Perphenazine]
(ΔTm)c-(ΔTm)d, difference in melting temperature of LPLA2 alone or in the presence of drug [1]: -0.41 ± 0.2 °C
IC50 ([2]; LPLA2 IC50, 1-O-acyl N-acetylsphingosine synthase activity, pH 4.5, DOPC/sulfatide liposomes): 3.92 µM
pKa (basic) [3, 7]: 8.21

CC[C@]1(O)C[C@@H]2CN(CCc3c([nH]c4ccccc34)[C@@](C(=O)OC)(c3cc4c(cc3OC)N(C)[C@H]3[C@@](O)(C(=O)OC)[C@H](OC(C)=O)[C@]5(CC)C=CCN6CC[C@]43[C@@H]65)C2)C1 [Vinblastine, methyl (1R,9R,10S,11R,12R,19R)-11-(acetyloxy)-12-ethyl-4-[(13S,15R,17S)-17-ethyl-17-hydroxy-13-(methoxycarbonyl)-1,11-diazatetracyclo [13.3.1.0ˆ[1].0ˆ[1]]nonadeca-4(12),5(10),6,8-tetraen-13-yl]-10-hydroxy-5-methoxy-8-methyl-8,16-diazapentacyclo [10.6.1.0ˆ[1].0ˆ[1] .0ˆ[3]] nonadeca-2,4,6,13-tetraene-10-carboxylate]
(ΔTm)c-(ΔTm)d, difference in melting temperature of LPLA2 alone or in the presence of drug ([1]; N=3 ± SD): -0.24 ± 0.0 °C
IC50 [2, 6]: 2120 µM
LPLA2 inhibition (in words) ([2]; acyl transferase activity): millimolar concentrations

CN1CCN2c3ncccc3Cc3ccccc3C2C1 (centres unmarked) [Mirtazapine, 5-methyl-2,5,19-triazatetracyclo [13.4.0.0^2,^7.0^8,^1³] nonadeca-1(15),8,10,12,16,18-hexaene]
(ΔTm)c-(ΔTm)d, difference in melting temperature of LPLA2 alone or in the presence of drug ([1]; N=3 ± SD): -1.30 ± 0.7 °C
IC50 [2, 6]: 8.7 µM
pKa (basic) [3, 7]: 6.67

COc1ccc2c(c1)[nH]c1c(C)nccc12 [Harmine]
(ΔTm)c-(ΔTm)d, difference in melting temperature of LPLA2 alone or in the presence of drug ([1]; N=3 ± SD): -1.94 ± 0.9 °C
IC50 ([2]; LPLA2 IC50, LPLA2 dependent 1-O-acyl N-acetylsphingosine synthase activity): 633 µM

CCCNCC(O)COc1ccccc1C(=O)CCc1ccccc1 (centres unmarked) [Propafenone, 1-{2-[2-hydroxy-3-(propylamino)propoxy]phenyl}-3-phenylpropan-1-one]
IC50 [2, 6]: 48.2 µM

Cc1ccccc1C(OCCN(C)C)c1ccccc1 (centres unmarked) [Orphenadrine]
pKa (basic) [3, 5]: 8.87

CC(C)(C)c1ccc(CN2CCN(C(c3ccccc3)c3ccc(Cl)cc3)CC2)cc1 (centres unmarked) [Buclizine, 1-((4-chlorophenyl)phenylmethyl)-4-((4-(1,1-dimethylethyl)phenyl)methyl)piperazine]
(ΔTm)c-(ΔTm)d, difference in melting temperature of LPLA2 alone or in the presence of drug ([1]; N=3 ± SD): 0.63 ± 0.1 °C
IC50 [2, 6]: 9.13 µM
pKa (basic) [3, 7]: 8.04

CC(C)C[C@H](N)C(=O)O [l-leucine]
(ΔTm)c-(ΔTm)d, difference in melting temperature of LPLA2 alone or in the presence of drug ([1]; N=3 ± SD): 1.86 ± 0.6 °C

CCN(CC)CCOc1ccc(C(=C(Cl)c2ccccc2)c2ccccc2)cc1 [Clomifene]
pKa (basic) [3, 5]: 9.31

O=C1C(O)=C([C@H]2CC[C@H](c3ccc(Cl)cc3)CC2)C(=O)c2ccccc21 [atovaquone]
(ΔTm)c-(ΔTm)d, difference in melting temperature of LPLA2 alone or in the presence of drug ([1]; N=3 ± SD): -0.17 ± 0.1 °C

OC(CCN1CCCC1)(c1ccccc1)C1CCCCC1 (centres unmarked) [Procyclidine]
(ΔTm)c-(ΔTm)d, difference in melting temperature of LPLA2 alone or in the presence of drug ([1]; N=3 ± SD): 0.51 ± 0.0 °C
pKa (basic) [3, 5]: 13.84

CCN(CC)CCc1nc(-c2ccccc2)no1 [oxolamine]
(ΔTm)c-(ΔTm)d, difference in melting temperature of LPLA2 alone or in the presence of drug ([1]; N=3 ± SD): -0.89 ± 0.0 °C

CN1[C@@H]2CC[C@H]1C[C@@H](OC(c1ccccc1)c1ccccc1)C2 [Benztropine]
pKa (basic) [3, 5]: 9.54

CC#C[C@]1(O)CC[C@H]2[C@@H]3CCC4=CC(=O)CCC4=C3[C@@H](c3ccc(N(C)C)cc3)C[C@@]21C [Mifepristone, (1S,3aS,3bS,10R,11aS)-10-[4-(dimethylamino)phenyl]-1-hydroxy-11a-methyl-1-(prop-1-yn-1-yl)-1H,2H,3H,3aH, 3bH,4H,5H,7H,8H, 9H,10H,11H,11aH-cyclopenta[a]phenanthren-7-one]
(ΔTm)c-(ΔTm)d, difference in melting temperature of LPLA2 alone or in the presence of drug [1]: 0.20 ± 0.0 °C
IC50 [2, 6]: 27.7 µM
pKa (basic) [3, 7]: 4.89

CC(C)(C#N)c1cc(Cn2cncn2)cc(C(C)(C)C#N)c1 [Anastrozole, 2;2″-[5-(1H-1;2;4-Triazol-1-ylmethyl)-1,3-phenylene]bis(2-methyl-propiononitrile)]
(ΔTm)c-(ΔTm)d, difference in melting temperature of LPLA2 alone or in the presence of drug ([1]; N=3 ± SD): -1.05 ± 0.1 °C
IC50 [2, 6]: 4.82 µM
pKa (basic) [3, 7]: 2

NCC1(CC(=O)O)CCCCC1 [Gabapentin]
IC50 [2, 4]: 37.4 µM
pKa (basic) [3, 5]: 9.91

CC(C)OC(=O)C(C)(C)Oc1ccc(C(=O)c2ccc(Cl)cc2)cc1 [Fenofibrate, 2-[4-(4-chlorobenzoyl)phenoxy]-2-methylpropanoic acid isopropyl ester]
(ΔTm)c-(ΔTm)d, difference in melting temperature of LPLA2 alone or in the presence of drug ([1]; N=3 ± SD): 0.44 ± 0.7 °C
IC50 [2, 6]: 2.25 µM
pKa (basic) [3, 7]: -4.9

O=C(O)Cc1ccccc1Nc1c(Cl)cccc1Cl [Diclofenac]
(ΔTm)c-(ΔTm)d, difference in melting temperature of LPLA2 alone or in the presence of drug ([1]; N=3 ± SD): 1.70 ± 0.5 °C
IC50 [2, 4]: 7.2 µM

Nc1c(Br)cc(Br)cc1CN[C@H]1CC[C@H](O)CC1 [Ambroxol, 2-amino-3,5-dibromo-N-(trans-4-hydroxycyclohexyl) benzylamine]
(ΔTm)c-(ΔTm)d, difference in melting temperature of LPLA2 alone or in the presence of drug ([1]; N=3 ± SD): 0.68 ± 0.5 °C
IC50 [2, 6]: 59 µM
pKa (basic) [3, 7]: 9.01

CSC(=N)N [S-methylisothiourea]
(ΔTm)c-(ΔTm)d, difference in melting temperature of LPLA2 alone or in the presence of drug ([1]; N=3 ± SD): -2.05 ± 0.6 °C

O=c1ccn([C@@H]2O[C@H](CO)[C@@H](O)[C@H]2O)c(=O)[nH]1 [Uridine]
pKa (basic) [3, 5]: -3

NCCc1cc(O)c(O)cc1O [6-Hydroxy-dopamine]
IC50 [2, 4]: 88 µM
pKa (basic) [3, 5]: 9.85

CC(Cc1cccc(C(F)(F)F)c1)NCCOC(=O)c1ccccc1 (centres unmarked) [Benfluorex, N-(1-methyl-2-(3-[trifluoromethyl]-phenyl)ethyl)amino ethanol benzoate ester]
IC50 [2, 6]: 19.9 µM
pKa (basic) [3, 7]: 9.14

CC(C)N(CCC(C(N)=O)(c1ccccc1)c1ccccn1)C(C)C (centres unmarked) [Disopyramide]
(ΔTm)c-(ΔTm)d, difference in melting temperature of LPLA2 alone or in the presence of drug [1]: 0 °C

CN1[C@@H]2CC[C@H]1C[C@@H](OC(=O)C(CO)c1ccccc1)C2 (some centres unmarked) [Atropine]
IC50 ([2]; LPLA2 IC50): 1870 µM

CSc1ccc2c(c1)N(CCC1CCCCN1C)c1ccccc1S2 (centres unmarked) [Thioridazine, 10-[2-(1-methylpiperidin-2-yl)ethyl]-2-(methylsulfanyl) -10H-phenothiazine]
pKa (basic) [3, 7]: 8.93

Cc1ccc(C(=O)Nc2ccc(S(=O)(=O)O)c3cc(S(=O)(=O)O)cc(S(=O)(=O)O)c23)cc1NC(=O)c1cccc(NC(=O)Nc2cccc(C(=O)Nc3cc(C(=O)Nc4ccc(S(=O)(=O)O)c5cc(S(=O)(=O)O)cc(S(=O)(=O)O)c45)ccc3C)c2)c1 [Suramin, 8-{4-methyl-3-[3-({[3-({2-methyl-5-[(4,6,8-trisulfonaphthalen-1yl)carbamoyl]phenyl}carbamoyl)phenyl]carbamoyl}amino)benzamido]benzamido}naphthalene-1,3,5-trisulfonic acid]
(ΔTm)c-(ΔTm)d, difference in melting temperature of LPLA2 alone or in the presence of drug ([1]; N=3 ± SD): 0 °C
IC50 [2, 6]: 35.5 µM

CCOc1ccc(NC(C)=O)cc1 [Phenacetin, N-(4-ethoxyphenyl) acetamide]
(ΔTm)c-(ΔTm)d, difference in melting temperature of LPLA2 alone or in the presence of drug ([1]; N=3 ± SD): -2.30 ± 0.6 °C
IC50 [2, 6]: 2140 µM
pKa (basic) [3, 7]: -4.2

CN1CCc2c(c3ccccc3n2Cc2ccccc2)C1 [mebhydroline]
(ΔTm)c-(ΔTm)d, difference in melting temperature of LPLA2 alone or in the presence of drug ([1]; N=3 ± SD): 0.84 ± 0.1 °C

Fc1ccc(C(c2ccc(F)cc2)N2CCN(C/C=C/c3ccccc3)CC2)cc1 [Flunarizine, 1-[bis(4-fluorophenyl)methyl]-4-[(2E)-3-phenylprop-2-en-1-yl]piperazine]
pKa (basic) [3, 7]: 7.6

CN(C)C(=O)C(CCN1CCC(O)(c2ccc(Cl)cc2)CC1)(c1ccccc1)c1ccccc1 [Loperamide, 4-[4-(4-chlorophenyl)-4-hydroxypiperidin-1-yl]-N,N-dimethyl-2,2-diphenylbutanamide]
pKa (basic) [3, 7]: 9.41

CCN(CC)C(C)CN1c2ccccc2Sc2ccccc21 (centres unmarked) [Profenamine, diethyl[1-(10H-phenothiazin-10-yl)propan-2-yl]amine]
IC50 [2, 6]: 8.7 µM
pKa (basic) [3, 7]: 9.6

OC[C@H]1OC(O)[C@H](O)[C@@H](O)[C@@H]1O (mixture of isomers) [D-( ± )-glucose]
(ΔTm)c-(ΔTm)d, difference in melting temperature of LPLA2 alone or in the presence of drug ([1]; N=3 ± SD): 0 °C
